Patent publication US8334107B2, “Detection systems utilizing supported lipid bilayers” (priority 2005, dated 2012)

B1: FcγRIIb: low affinity IgG receptor, single polypeptide chain of 310 amino acids (protein, UniProt P31994 43-310, looked up)
Low affinity immunoglobulin …: TPAAPPKAVLKLEPQWINVLQEDSVTLTCRGTHSPESDSIQWFHNGNLIPTHTQPSYRFKANNNDSGEYTCQTGQTSLSDPVHLTVLSEWLVLQTPHLEFQEGETIVLRCHSWKDKPLVKVTFFQNGKSKKFSRSDPNFSIPQANHSHSGDYHCTGNIGYTLYSSKPVTITVQAPSSSPMGIIVAVVTGIAVAAIVAAVVALIYCRKKRISALPGYPECREMGETLPEKPANPTNPDEADKVGAENTITYSLLMHPDALEEPDDQNRI

Experiments:
lipid bilayer = assay: Superquenching of fluorescent polymer coated lipid bilayer beads (general statement); format: biochemical; conditions: streptolysin O with cholesterol-containing lipids, mellitin with anionic lipids
Source text: On the other hand, some test agents may only lead to gaps or smaller interruptions of the lipid bilayer, for example, as a result of insertion of a channel- or pore-forming proteins such as gramicidin and hemolysin. In either case, the result is either complete or partial superquenching of the fluorescent polymer. In general, non-porous beads are used for such quenching assays because the quenchable polymer is preferably coated onto the beads and is not impregnated into the beads.

anionic phospholipids [1] = assay: Affinity of PLA2 for anionic phospholipids (Kim et al.); format: binding
Source text: From FIG. 18, the association constant (corresponding to the reciprocal of the point of half saturation) for nMLT and sMLT with DMPG were 5×10^6 M^−1 and 1.7×10^6 M^−1, respectively. […] Lower concentrations of nMLT, in comparison to sMLT, were required to disrupt the DMPG lipid bilayer. This might be attributed to the fact that nMLT contains some phospholipase A2 (PLA2) as a contaminant. PLA2 has a high affinity for anionic phospholipids, with an association constant of 0.5×10^10 M^−1 (Kim et al., Anal. Chem. 250, 109-116 (1997)), which is about 3000 fold higher than that of MLT. Although PLA2 activity requires calcium, which is not present in the experimental system, it has been reported that even upon addition of EDTA to natural MLT, PLA2 maintains its activity, probably due to formation of a tight complex with calcium with PLA2 (Dempsey, C. E. Biochim. Biophys. Acta 1990, 1031, 143-161).

anionic phospholipids [2] = conditions: cited from earlier work
[3] = test system: cholesterol (10%, molar ratio) containing lipid membrane; assay: Release of dye from porous particles coated with cholesterol containing lipid membrane by streptolysin-O; format: biochemical; conditions: low concentrations of streptolysin-O versus control without
Experimental: FIGS. 22A-B illustrate one aspect of the invention—drug and/or dye release from the present lipid-coated particles. FIG. 22A is a graph showing release of dye from porous particles (containing dye inside) where the particles are coated with a cholesterol (10%, molar ratio) containing lipid membrane. As increasing amounts of streptolysin-O are added (solid square symbols represent lower concentration than solid ovals), more dye is released. […] FIG. 22B illustrates how streptolysin-O can disrupt cholesterol-containing lipid bilayer membranes, leading to release of materials (e.g., drugs or antibiotics) enclosed within the membrane. Streptolysin-O is an anti-microbial protein that preferably binds to cholesterol and can disrupt cholesterol-containing membranes.

monomeric IgG = conditions: cited from earlier work

Row | Molecule | effect on the lipid bilayer (lipid bilayer) | association constant relative to that of MLT (anionic phospholipids [1]) | association constant (anionic phospholipids [2]) [M⁻¹] | release of dye [3] | Kd (monomeric IgG) [nM]
1 | PLA2: lipolytic enzyme, contaminant of natural melittin | total disruption of the bilayer | about 3000 fold | 5e+09 | – | –
2 | streptolysin-O: anti-microbial protein that preferably binds to cholesterol and can disrupt cholesterol-containing membranes | total disruption of the bilayer | – | – | greater than observed for control | –
3 | B1 | – | – | – | – | ~1000
